From ChEMBL document CHEMBL5252536, “Discovery of VU0467485/AZ13713945: An M4 PAM Evaluated as a Preclinical Candidate for the Treatment of Schizophrenia” (ACS Med Chem Lett, 2017)

Target: T1, Muscarinic acetylcholine receptor M2 (Rattus norvegicus, UniProt P10980)
T1 sequence (P10980 whole entry): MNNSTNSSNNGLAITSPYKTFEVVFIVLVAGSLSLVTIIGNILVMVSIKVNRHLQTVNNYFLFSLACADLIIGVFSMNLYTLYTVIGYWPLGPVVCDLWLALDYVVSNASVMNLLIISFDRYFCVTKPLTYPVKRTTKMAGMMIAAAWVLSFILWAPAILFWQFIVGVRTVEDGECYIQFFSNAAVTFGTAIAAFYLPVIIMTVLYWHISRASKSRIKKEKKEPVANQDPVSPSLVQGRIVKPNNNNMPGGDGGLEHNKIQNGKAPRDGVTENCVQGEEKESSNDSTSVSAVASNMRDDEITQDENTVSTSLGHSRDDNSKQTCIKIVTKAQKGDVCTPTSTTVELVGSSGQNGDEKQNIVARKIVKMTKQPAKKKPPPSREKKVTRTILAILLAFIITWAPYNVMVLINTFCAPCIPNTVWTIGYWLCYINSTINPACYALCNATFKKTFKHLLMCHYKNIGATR
Test: Positive allosteric modulator activity at rat M2 receptor expressed in CHO cells co-expressing Gqi5 assessed as maximal response to ACh by calcium mobilization assay
Type: cell-based

EC50: > 30 µM
Compound: COc1ccc(CNC(=O)c2sc3nnc(C)c(C)c3c2N)cc1F
